For series [1], the system named is S. oneidensis MR-1. The experiment in a line: Bacterial viability after polymerization (LIVE/DEAD BacLight, CFU counting). The class given is cell-based, Shewanella oneidensis.
Procedure: Bacterial viability was determined by CFU counting and staining with the LIVE/DEAD BacLight Viability Kit (Invitrogen). For CFU counting, serial dilutions from the Cu-TPMA polymerization reaction and a control culture containing 20 mM sodium lactate and 40 mM sodium fumarate were plated onto LB agar containing 20 mM sodium lactate and 40 mM sodium fumarate, and incubated anaerobically for 18 hours. The LIVE/DEAD BacLight Viability Kit was used according to manufacturer instructions. Briefly, cells were harvested after polymerization and washed 3× with 0.85% saline by centrifugation at 6000×g for 20 min. Cells were concentrated to an OD600 of ˜2.0 and incubated with the LIVE/DEAD BacLight Bacterial Viability dye mixture in the dark for 15 minutes. Excess, unbound dye was removed by repeated centrifugation and washing with 0.85% saline (total of 5 washes). 20 μL of cells were placed on glass slides, allowed to settle, and covered with a 0.17 mm coverslip. Excess moisture was wicked from the slide edges and the coverslips were sealed with nail polish. A Zeiss Axiovert 200M Fluorescent Microscope was used to image live and dead cells at room temperature. Images were captured using 475/40 nm excitation and 530/50 nm emission for green (live) fluorescence and 560/40 nm excitation and 630/75 nm emission for red (dead) fluorescence with a 40× oil objective. Cell counts to determine the viable population percentages were quantified by thresholding using Fiji 1.0 software from at least 3 different fields of view. Representative images were background subtracted using a rolling ball radius of 10 pixels in Fiji 1.0.
Series [2] concerns E. coli. The conditions noted are these: polymerization conditions, Cu(II/I) 2 μM.
Series [3] deals with S. oneidensis genomic knockout strain (ΔmtrCΔomcAΔmtrF) with BUFFER GATE/sfGFP plasmid. The experiment in a line: BUFFER GATE/sfGFP reporter response to inducer. The class given is cell-based, Shewanella oneidensis. The conditions noted are these: various concentrations of IPTG. From the text:
An S. oneidensis strain/plasmid system was developed that tunes extracellular electron transfer via BUFFER GATE-controlled expression of mtrC. The BUFFER GATE sets gene expression as ‘off’ in the absence of a user-defined signal (e.g., small-molecule, light, heat). However, in the signal's presence, the BUFFER GATE turns gene expression ‘on’. A BUFFER GATE was constructed by encoding the LacI repressor and Ptac promoter pairing on a plasmid, which together can modulate transcription of promoter-downstream genes based on culture concentration of the small-molecule Isopropyl β-D-1-thiogalactopyranoside or IPTG. To test the functionality and dynamic range of gene expression actuated by this BUFFER GATE, a plasmid was constructed that placed a ribozyme-insulated fluorescent reporter gene, superfolder GFP or sfGFP, downstream of the Ptac promoter. This BUFFER GATE/sfGFP plasmid was used to transform an S. oneidensis genomic knockout strain (ΔmtrCΔomcAΔmtrF) and sfGFP fluorescence was measured at various concentrations of IPTG. Using this S. oneidensis strain, 488/530 nm fluorescence varied over about 2 orders of magnitude (FIG. 11).

Regarding `O.O.O.O.O.O=S(=O)([O-])[O-].[Cu+2]` [Cu(II), Cupric sulfate pentahydrate], the post-polymerization viability came out at 74% in series [1] (MR-1, polymerization conditions, Cu(II/I) 2 μM) and 86% in series [2]. Besides, the “MR-1 colony forming units (CFUs) following polymerization” value in series [1] (optimized polymerization conditions, Cu(II/I) 2 μM and below) was “No significant difference”.
Regarding `CC(C)S[C@@H]1O[C@H](CO)[C@H](O)[C@H](O)[C@H]1O` [IPTG, Isopropyl β-D-1-thiogalactopyranoside], in series [3], the “sfGFP 488/530 nm fluorescence variation” value is recorded as “about 2 orders of magnitude”.
In the case of `[Cu+]` [Cu(I)], the “inhibition of MR-1 growth” value in series [1] (after 24 hours of polymerization, CuSO4·5H2O and EDTA) is “minimal inhibition”.
